Dissolving in media data for 1 substance are collected here from patent US20140066411A1, “PHARMACEUTICAL COMPOSITIONS FOR EXTENDED RELEASE OF AZO-BONDED 5-AMINOSALICYLIC ACID COMPOSITIONS” (Depomed, Inc., priority 2012, published 2014).

A short description of the data set: Dissolving of olsalazine in dissolution media. It counts as physicochemical. The procedure: Formulation 4 tablets were also made using pharmaceutical grade olsalazine in a micronized form in order to test the effects of drug particle size on tablet manufacturing and the ensuing release profiles. In vitro release profiles were evaluated for Formulation 4 tablets made as described in Example 1 and for tablets made using the same formula and process except with micronized olsalazine.

Take olsalazine: the dissolving in media entry by setting is: (pH 4.5 acetate buffer) “did not completely dissolve”; (pH 7.5 phosphate buffer) “dissolves easily”.
